Read-outs that look alike come from different tables or passages of the source.
Key:
NanoLuc [1] = assay: NanoLuc luciferase reporter expression from constitutive promoters and RBSs integrated with pNBU2; assay type: cell-based, B. thetaiotaomicron; conditions: for Average Luminescence (RLU/CFU): RBS combined with promoter PBT1311, NanoLuc reporter, three biological replicates; for Expression Level (RLU/CFU): set of 8 RBSs, under control of PBT1311, NanoLuc reporter
B. thetaiotaomicron = assay: Minimum inhibitory concentration of polymyxin B with CRISPRi against BT1854; assay type: cell-based
Text: FIGS. 4A-4F. CRISPRi-mediated repression of recombinant and endogenous genes. (FIG. 4A) Schematic of dCas9-based repression of NanoLuc. LacI^Q is expressed from PBT1311 and represses transcription from the PLacO23 promoter. Addition of IPTG inactivates LacI^Q to allow expression of dCas9 from PLacO23 dCas9 complexes with guide RNA (sgRNA) constitutively expressed from the P1 promoter to prevent the transcription of NanoLuc from the PcfiA promoter. Guide RNAs were designed to target the coding sequence of NanoLuc (NL1-4) or the PcfiA promoter (PR1-2). (FIG. 4B) Response curves of dCas9-mediated targeting the coding sequence of NanoLuc (NL1-4), the promoter (PR1-2) or a nonsense sequence (NS). Fourfold serial dilutions of IPTG starting at 500 μM or no inducer were added to cultures. Response curves were fit to a Hill Function (solid lines). (FIG. 4C) Fold repression elicited by various gRNAs in the presence (500 μM) of inducer. Bars are colored to correspond to part B. (FIG. 4D) Genomic location of endogenous genes targeted using CRISPRi. […]
Resistance to inflammation-associated cationic antimicrobial peptides, such as polymyxin B, is essential for the stability of commensal organisms in the dynamic gut environment. […] Using the minimum inhibitory concentration (MIC) of polymyxin B as a phenotypic readout, an sgRNA was designed to specifically suppress BT1854 expression.

NanoLuc [2] = assay: Response curves of inducible promoters driving NanoLuc; assay type: cell-based, B. thetaiotaomicron; conditions: for change in gene expression on induction: IPTG induction
Protocol: FIGS. 2A-2E. Design and characterization of genetic sensors. (FIGS. 2A-2D) Response curves for NanoLuc under the regulated control of the rhamnose—(Rha) (FIG. 2A), chondroitin sulfate—(ChS) (FIG. 2B), arabinogalactan—(AG) (FIG. 2C), or IPTG—(FIG. 2D) inducible promoters. LacO1 operator sites were inserted in various regions (O1, O2, O3) of the PcfxA promoter (see also FIGS. 7A-7B). Inducer concentrations were applied as follows: three-fold serial dilutions starting at 10 mM Rha (FIG. 2A); three-fold serial dilutions starting at 0.4% for ChS (FIG. 2B) and AG (FIG. 2C); and four-fold serial dilutions starting at 500 μM for IPTG (FIG. 2D). The leftmost data point in each plot represents the background luminescence in the absence of inducer. Response curves were fit to a Hill function (solid lines). (FIG. 2E) Orthogonality matrix of sugar-inducible genetic systems incubated with 10 mM rhamnose (Rha), 0.2% chondroitin sulfate (ChS), 0.2% arabinogalactan (AG), or 100 mM IPTG compared to no inducer. Error bars represent the standard deviation of three biological replicates made on different days.
FIGS. 7A-7B. Synthetic IPTG-inducible promoters. (FIG. 7A) Synthetic IPTG-inducible promoters were constructed by placing LacO1 operator sites (red) upstream of the −33 element (O1), between the −33 and −7 elements (O2) and/or directly downstream of the transcription start site (O3) of the strong PcfxA promoter. Predicted −33, −7 and +1 sites are shown in bold. These promoters are regulated by the E. coli LacIQ repressor expressed from PBT1311. FIG. 7A depicts SEQ ID NOs: 217 to 220 from top to bottom, respectively. (FIG. 7B) Response curves for the synthetic IPTG-inducible systems. Cells were incubated with no inducer or four-fold serial dilutions of IPTG starting at 500 μM. Data sets for PLacO13 and PLacO23 were fit to a Hill function (solid line). Error bars represent the standard deviation of three biological replicates made on three different days (n=3).
To create inducible systems for use in B. thetaiotaomicron, parts from a large repertoire of systems that govern carbohydrate utilization were used, which included cytoplasmic transcription factors, extracytoplasmic function sigma/anti-sigma pairs, and hybrid two-component systems (HTCS), among others (64). In B. thetaiotaomicron, rhamnose metabolism is mediated by the AraC/XylS-family transcriptional activator, RhaR, which activates transcription at the PBT3763 promoter (Patel E H, et al. Res. Microbiol. 159:678-84, 2008). To assay the functionality of PBT3763 as an inducible system, 250 bp of the promoter-RBS region was cloned upstream of the start codon of BT3763 into the pNBU2 expression vector to drive expression of NanoLuc.
Two-component systems are signal-transduction mechanisms widespread in bacteria for sensing external stimuli. […] Putative HTCSs, BT3334 and BT0267, were identified in transcriptomic studies to control expression of the chondroitin sulfate (ChS)-inducible PBT3324 promoter and arabinogalactan (AG)-inducible PBT0268 promoter, respectively (64, 83). The promoter regions upstream of the BT3324 and BT0268 genes were used as the basis for two polysaccharide sensors. Chondroitin sulfate induction of PBT3324 and arabinogalactan induction PBT0268 led to a 60-fold and 29-fold regulation of output gene expression, respectively (FIGS. 2B and 2C).
Next, an IPTG-inducible system was developed. Pairs of LacO1 operator sites were inserted in the strong PcfxA promoter in three locations: upstream of the −33 element (O1), between the −33 and −7 elements (O2) or just downstream of the transcription start site (O3) (FIGS. 7A-7B). The LacI^Q repressor was expressed from the strong BT1311 promoter to achieve tight control of NanoLuc expression. Compared to the unmodified PcfxA promoter, the addition of synthetic operator sites diminished the maximum expression of NanoLuc (FIGS. 7A-7B). […]

[3] = IPTG inducer, LacIQ expressed from BT1311 promoter, read-out: threshold K

## C54: RBS, SEQ ID NO: 141 (DNA TCCCGCATTTTAAAATAAAATAAATTATTCGTTTATTTAAACGAAT; chemistry not fully specified)
NanoLuc [1]
  Average Luminescence (RLU/CFU): 3.651E-05 RLU/CFU

## C55: RBS, SEQ ID NO: 142 (DNA TCCCGCATTTTAAAATAAAATAAATTATTCGTTTACTTAAACGAAT; chemistry not fully specified)
NanoLuc [1]
  Average Luminescence (RLU/CFU): 2.628E-05 RLU/CFU

## C56: RBS, SEQ ID NO: 143 (DNA TCCCGCATTTTAAAATAAAATAAATTATTCGTTTAGTTAAACGAAT; chemistry not fully specified)
NanoLuc [1]
  Average Luminescence (RLU/CFU): 2.2125E-05 RLU/CFU
  Expression Level (RLU/CFU): 2.21E-05 RLU/CFU

## polymyxin B
B. thetaiotaomicron; dCas9BT1854 cells, dCas9 induced with IPTG
  decrease in MIC compared to WT and dCas9NS control: 8 to 16 fold
B. thetaiotaomicron; dCas9NS strains, presence or absence of IPTG induction, similar to WT
  polymyxin B resistance: high levels of polymyxin B resistance

## rpiL*-C39: RBS, SEQ ID NO: 176; sequence and value match B39 of Table 1 (DNA TCCCGCATTTTAAAATAAAATAAATCATCTAGTTAATTAAACGAATATG; chemistry not fully specified)
NanoLuc [1]
  Expression Level (RLU/CFU): 1.26E-03 RLU/CFU

## rpiL*: parent ribosomal protein RBS, SEQ ID NO: 39, 172, 174 (DNA TCCCGCATTTTAAAATAAAATAAATTATTTATTTAATTAAACGAAT; chemistry not fully specified)
NanoLuc [1]
  Average Luminescence (RLU/CFU): 0.02133 RLU/CFU
  Expression Level (RLU/CFU): 2.13E-02 RLU/CFU

B1: PBT3324: Chondroitin-sulfate inducible promoter + RBS, SEQ ID NO: 145 (nucleic acid)
DNA: TATTTATAAGAGATAGCACATAATTTGAACTATTTTGTACGATTTGAACCCCTCTTTCCAACAAAAGAGGGGTTTCTTTGCATTCGGGAGAAGAACAAGTGATCTCTCTCTGTAAATACCGGCTAATGATAAACCGATTTACCATCGGACCTAAAACGATATATTCTATGATAAAGCAATCTTTTACTCTGTCAGTGACA
NanoLuc [2]; chondroitin sulfate induction
  regulation of output gene expression: 60 fold

B2: PBT3763: Rhamnose inducible promoter + RBS, SEQ ID NO: 144 (nucleic acid)
DNA: TATTTCGGAGAAAACATGCATAAATCATGCTTTTTTTGCATAAAAAGTAAAATTTATACTGATGTAAGGTTTGGCTATGCAGATTTGTGTCAAAATGCACATCCTTTCTATCAAAATGCGTAAGGAAAAGGAGGAAGGAACCGCCTATCTTTGCAATGTAGGTAAATGGATACCTTAAATATATAGACAAAATACC
NanoLuc [2]; rhamnose inducer
  Hill coefficient n: 1.4
NanoLuc [2]; rhamnose inducer, read-out: threshold K (Hill function fit)
  EC50: 300 µM
NanoLuc [2]; rhamnose induction, NanoLuc
  output dynamic range: 104 fold

B3: PLacO13: Synthetic IPTG-inducible promoter + RBS, SEQ ID NO: 148 (nucleic acid)
DNA: TTACAAAGAAAATTCGACAAACTGTTATTTTTCTATCTATTTAAATTGTGAGCGGATAACAATTTGGGTGGGAAACTTTAGTTATGTACCTTTGTCGGCAATTGTGAGCGGATAACAATTAAATAAAGATATTCTCGTCAAACAAATATAAATAATATAAAC
NanoLuc [2]; [3]
  EC50: 86 µM
NanoLuc [2]
  change in gene expression on induction: 8 fold

B4: PLacO23: Synthetic IPTG-inducible promoter + RBS, SEQ ID NO: 149 (nucleic acid)
DNA: TTACAAAGAAAATTCGACAAACTGTTATTTTTCTATCTATTTATTTGAATTGTGAGCGGATAACAATTACCTTTGTCGGCAATTGTGAGCGGATAACAATTAAATAAAGATATTCTCGTCAAACAAATATAAATAATATAAAC
NanoLuc [2]; [3]
  EC50: 6 µM
NanoLuc [2]
  change in gene expression on induction: 22 fold
